Test results taken from PubChem BioAssay AID2060506 (Molecular Pharmacology Branch, DTP, NCI, 2025).

System: 598228-144-R-J1-PDC complex spheroid viability
Assay: Anticancer human tumor 598228-144-R-J1-PDC patient-derived serous endometrial adenocarcinoma cell line growth inhibition [GQUAD]
Conditions: for IC50: curve of first compound; for viability, T/C: stronger effect = lower value
Outline: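 Multi-cell-type spheroids of tumor cells with HUVEC and mesenchymal stem cells, treated with drug combinations. Concentrations descend in half-log steps from near clinical Cmax, or from 10 microM where Cmax is unknown; viability read-out.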

[1] = second compound 0.0316 µM, first compound 0.0316 µM
[2] = second compound 0.0316 µM, first compound 0.1 µM
[3] = second compound 0.0316 µM, first compound 0.316 µM
[4] = second compound 0.0316 µM, first compound 1 µM
[5] = second compound 0.0316 µM, first compound 3.16 µM
[6] = second compound 0.0316 µM, first compound 10 µM
[7] = second compound 0.1 µM, first compound 0.0316 µM
[8] = second compound 0.1 µM, first compound 0.1 µM
[9] = second compound 0.1 µM, first compound 0.316 µM
[10] = second compound 0.1 µM, first compound 1 µM
[11] = second compound 0.1 µM, first compound 3.16 µM
[12] = second compound 0.1 µM, first compound 10 µM
[13] = second compound 0.316 µM, first compound 0.0316 µM
[14] = second compound 0.316 µM, first compound 0.1 µM
[15] = second compound 0.316 µM, first compound 0.316 µM
[16] = second compound 0.316 µM, first compound 1 µM
[17] = second compound 0.316 µM, first compound 3.16 µM
[18] = second compound 0.316 µM, first compound 10 µM
[19] = second compound 1 µM, first compound 0.0316 µM
[20] = second compound 1 µM, first compound 0.1 µM
[21] = second compound 1 µM, first compound 0.316 µM
[22] = second compound 1 µM, first compound 1 µM
[23] = second compound 1 µM, first compound 3.16 µM
[24] = second compound 1 µM, first compound 10 µM
[25] = second compound 3.16 µM, first compound 0.0316 µM
[26] = second compound 3.16 µM, first compound 0.1 µM
[27] = second compound 3.16 µM, first compound 0.316 µM
[28] = second compound 3.16 µM, first compound 1 µM
[29] = second compound 3.16 µM, first compound 3.16 µM
[30] = second compound 3.16 µM, first compound 10 µM
[31] = second compound 10 µM, first compound 0.0316 µM
[32] = second compound 10 µM, first compound 0.1 µM
[33] = second compound 10 µM, first compound 0.316 µM
[34] = second compound 10 µM, first compound 1 µM
[35] = second compound 10 µM, first compound 3.16 µM
[36] = second compound 10 µM, first compound 10 µM
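Note: spheroids exposed to the agents for one week before reading.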
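Throughout, for viability, T/C: percent of vehicle DMSO control viability so 100% = untreated growth.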

## COc1ncnc(C2CC2)c1-c1ncc2cnn(Cc3ccc(-c4nc(C(F)(F)F)cn4C(C)C)cc3)c2n1 + Cc1cnc(CNC(=O)c2c(=O)c3ccc(N4CCCN(C)CC4)nc3n3c2sc2ccccc23)cn1
Second compound 0.0316 µM
  IC50: > 10 µM
Second compound 0.1 µM
  IC50: > 10 µM
Second compound 0.316 µM
  IC50: > 10 µM
Second compound 1 µM
  IC50: > 10 µM
Second compound 3.16 µM
  IC50: > 10 µM
Second compound 10 µM
  IC50: < 0.0316 µM
[1]
  viability, T/C: 81%
[2]
  viability, T/C: 88.8%
[3]
  viability, T/C: 72.9%
[4]
  viability, T/C: 86.8%
[5]
  viability, T/C: 102%
[6]
  viability, T/C: 85.4%
[7]
  viability, T/C: 67.3%
[8]
  viability, T/C: 79.3%
[9]
  viability, T/C: 95.1%
[10]
  viability, T/C: 68.4%
[11]
  viability, T/C: 63.9%
[12]
  viability, T/C: 78.2%
[13]
  viability, T/C: 82.6%
[14]
  viability, T/C: 77.5%
[15]
  viability, T/C: 60.9%
[16]
  viability, T/C: 73.4%
[17]
  viability, T/C: 80.7%
[18]
  viability, T/C: 65.2%
[19]
  viability, T/C: 77.6%
[20]
  viability, T/C: 76.4%
[21]
  viability, T/C: 69.8%
[22]
  viability, T/C: 62.8%
[23]
  viability, T/C: 71.2%
[24]
  viability, T/C: 90%
[25]
  viability, T/C: 62.3%
[26]
  viability, T/C: 65.9%
[27]
  viability, T/C: 60.5%
[28]
  viability, T/C: 53.8%
[29]
  viability, T/C: 57.8%
[30]
  viability, T/C: 65.1%
[31]
  viability, T/C: 38.7%
[32]
  viability, T/C: 24.8%
[33]
  viability, T/C: 31.6%
[34]
  viability, T/C: 24.8%
[35]
  viability, T/C: 34.6%
[36]
  viability, T/C: 23.6%

## CC1COCCN1c1cc(-c2ccnn2C)c2ccnc(-c3ccn[nH]3)c2n1 (stereo not drawn) + Cc1[nH]c2ccc(F)cc2c1-c1nc2c3cccnc3c3ncccc3c2[nH]1
Second compound 0.0316 µM
  IC50: 0.209 µM
Second compound 0.1 µM
  IC50: 0.221 µM
Second compound 0.316 µM
  IC50: 0.0782 µM
Second compound 1 µM
  IC50: < 0.0316 µM
Second compound 3.16 µM
  IC50: < 0.0316 µM
Second compound 10 µM
  IC50: < 0.0316 µM
[1]
  viability, T/C: 92.4%
[2]
  viability, T/C: 63.8%
[3]
  viability, T/C: 41.3%
[4]
  viability, T/C: 43.3%
[5]
  viability, T/C: 37.2%
[6]
  viability, T/C: 36%
[7]
  viability, T/C: 71.1%
[8]
  viability, T/C: 55.7%
[9]
  viability, T/C: 41.6%
[10]
  viability, T/C: 50.2%
[11]
  viability, T/C: 52.6%
[12]
  viability, T/C: 44%
[13]
  viability, T/C: 59%
[14]
  viability, T/C: 47.7%
[15]
  viability, T/C: 45.7%
[16]
  viability, T/C: 47.2%
[17]
  viability, T/C: 43.9%
[18]
  viability, T/C: 49.1%
[19]
  viability, T/C: 44.3%
[20]
  viability, T/C: 41.5%
[21]
  viability, T/C: 37.6%
[22]
  viability, T/C: 41.8%
[23]
  viability, T/C: 45.1%
[24]
  viability, T/C: 36.5%
[25]
  viability, T/C: 36.9%
[26]
  viability, T/C: 36.9%
[27]
  viability, T/C: 39.7%
[28]
  viability, T/C: 30.7%
[29]
  viability, T/C: 24.9%
[30]
  viability, T/C: 22.4%
[31]
  viability, T/C: 47%
[32]
  viability, T/C: 42.7%
[33]
  viability, T/C: 41.4%
[34]
  viability, T/C: 36.8%
[35]
  viability, T/C: 44.1%
[36]
  viability, T/C: 36.5%

## C=CC(=O)N1CCN(c2nc(=O)n(-c3c(C)ccnc3C(C)C)c3nc(-c4c(O)cccc4F)c(F)cc23)C(C)C1 (stereo not drawn) + CN(C)c1ccc(Nc2c3ccc(NC(=O)CCN4CCCC4)cc3nc3cc(NC(=O)CCN4CCCC4)ccc23)cc1
Second compound 0.0316 µM
  IC50: > 10 µM
Second compound 0.1 µM
  IC50: > 10 µM
Second compound 0.316 µM
  IC50: > 10 µM
Second compound 1 µM
  IC50: > 10 µM
Second compound 3.16 µM
  IC50: > 10 µM
Second compound 10 µM
  IC50: > 10 µM
[1]
  viability, T/C: 94.4%
[2]
  viability, T/C: 105%
[3]
  viability, T/C: 101%
[4]
  viability, T/C: 120%
[5]
  viability, T/C: 122%
[6]
  viability, T/C: 122%
[7]
  viability, T/C: 93.6%
[8]
  viability, T/C: 103%
[9]
  viability, T/C: 122%
[10]
  viability, T/C: 122%
[11]
  viability, T/C: 119%
[12]
  viability, T/C: 109%
[13]
  viability, T/C: 97.8%
[14]
  viability, T/C: 112%
[15]
  viability, T/C: 105%
[16]
  viability, T/C: 123%
[17]
  viability, T/C: 140%
[18]
  viability, T/C: 110%
[19]
  viability, T/C: 80.8%
[20]
  viability, T/C: 105%
[21]
  viability, T/C: 103%
[22]
  viability, T/C: 121%
[23]
  viability, T/C: 135%
[24]
  viability, T/C: 93.8%
[25]
  viability, T/C: 93.5%
[26]
  viability, T/C: 111%
[27]
  viability, T/C: 114%
[28]
  viability, T/C: 117%
[29]
  viability, T/C: 132%
[30]
  viability, T/C: 121%
[31]
  viability, T/C: 79.6%
[32]
  viability, T/C: 85.5%
[33]
  viability, T/C: 115%
[34]
  viability, T/C: 115%
[35]
  viability, T/C: 124%
[36]
  viability, T/C: 73%

## C=CC(=O)N1CCN(c2nc(=O)n(-c3c(C)ccnc3C(C)C)c3nc(-c4c(O)cccc4F)c(F)cc23)C(C)C1 (stereo not drawn) + Cc1cnc(CNC(=O)c2c(=O)c3ccc(N4CCCN(C)CC4)nc3n3c2sc2ccccc23)cn1
Second compound 0.0316 µM
  IC50: > 10 µM
Second compound 0.1 µM
  IC50: > 10 µM
Second compound 0.316 µM
  IC50: > 10 µM
Second compound 1 µM
  IC50: > 10 µM
Second compound 3.16 µM
  IC50: > 10 µM
Second compound 10 µM
  IC50: < 0.0316 µM
[1]
  viability, T/C: 92.7%
[2]
  viability, T/C: 97.3%
[3]
  viability, T/C: 91%
[4]
  viability, T/C: 83.2%
[5]
  viability, T/C: 102%
[6]
  viability, T/C: 82.9%
[7]
  viability, T/C: 80.8%
[8]
  viability, T/C: 66.3%
[9]
  viability, T/C: 77.6%
[10]
  viability, T/C: 81.7%
[11]
  viability, T/C: 86.4%
[12]
  viability, T/C: 80.4%
[13]
  viability, T/C: 89.3%
[14]
  viability, T/C: 55.1%
[15]
  viability, T/C: 62.6%
[16]
  viability, T/C: 73.3%
[17]
  viability, T/C: 80.6%
[18]
  viability, T/C: 64.1%
[19]
  viability, T/C: 65.1%
[20]
  viability, T/C: 74.9%
[21]
  viability, T/C: 58.2%
[22]
  viability, T/C: 83%
[23]
  viability, T/C: 77.6%
[24]
  viability, T/C: 79.8%
[25]
  viability, T/C: 69%
[26]
  viability, T/C: 60.4%
[27]
  viability, T/C: 60.1%
[28]
  viability, T/C: 55.4%
[29]
  viability, T/C: 63.3%
[30]
  viability, T/C: 54%
[31]
  viability, T/C: 48.1%
[32]
  viability, T/C: 36%
[33]
  viability, T/C: 60.9%
[34]
  viability, T/C: 50.9%
[35]
  viability, T/C: 51.5%
[36]
  viability, T/C: 5.43%
